Data as given in patent US20060194837A1, “Tetrahydroisoquinoline compounds” (priority 2004, published 2006).
pKi: −log10 of the molar value.

Legend:
[1] = molecular target: T1, human H3 receptor (Homo sapiens, UniProt Q9Y5N1); test: H3 receptor binding (N-[3H]-α-methylhistamine displacement); conditions: membranes of SK-N-MC cells expressing cloned human H3 receptor, 0.8 nM N-[3H]-α-methylhistamine, 60 min at 25° C.
T1 construct: expressed in transfected cells

[2] = molecular target: T2, Rat SERT (Rattus norvegicus, UniProt P31652); test: Rat brain SERT binding ([3H]-citalopram displacement); conditions: rat brain membranes without cerebellum, 0.6 nM [3H]-citalopram, 60 min at 25° C.; read-out: Rat SERT Ki
T2 construct: A rat brain without cerebellum (Zivic Laboratories, Inc.—Pittsburgh, Pa.) was homogenized; tissue Zivic Laboratories, Inc; host or cells: rat brain without cerebellum, membranes
Experimental: The supernatant was removed and re-centrifuged at 15,000 rpm for 30 min. […] Membranes were incubated with 0.6 nM [^3H]-Citalopram plus/minus test compounds for 60 min at 25° C. and harvested by rapid filtration over GF/C glass fiber filters (pretreated with 0.3% polyethylenimine) followed by four washes with ice-cold buffer.

[3] = molecular target: T3, human SERT (Homo sapiens, UniProt P31645); test: Human SERT binding (3H-citalopram displacement); conditions: HEK293 membranes expressing human SERT, rt 1 h
T3 construct: expressed in transfected cells; host or cells: HEK293 membranes
Experimental: Homogenized HEK293 (Human Embryonic Kidney) membranes expressing the human SERT were incubated with ^3H-citalopram (SERT) at rt for 1 h in 50 mM Tris, 120 mM NaCl, 5 mM KCl (pH 7.4). […] The membranes were washed and the radioactivity was counted as above.

T3 sequence (P31645 whole entry): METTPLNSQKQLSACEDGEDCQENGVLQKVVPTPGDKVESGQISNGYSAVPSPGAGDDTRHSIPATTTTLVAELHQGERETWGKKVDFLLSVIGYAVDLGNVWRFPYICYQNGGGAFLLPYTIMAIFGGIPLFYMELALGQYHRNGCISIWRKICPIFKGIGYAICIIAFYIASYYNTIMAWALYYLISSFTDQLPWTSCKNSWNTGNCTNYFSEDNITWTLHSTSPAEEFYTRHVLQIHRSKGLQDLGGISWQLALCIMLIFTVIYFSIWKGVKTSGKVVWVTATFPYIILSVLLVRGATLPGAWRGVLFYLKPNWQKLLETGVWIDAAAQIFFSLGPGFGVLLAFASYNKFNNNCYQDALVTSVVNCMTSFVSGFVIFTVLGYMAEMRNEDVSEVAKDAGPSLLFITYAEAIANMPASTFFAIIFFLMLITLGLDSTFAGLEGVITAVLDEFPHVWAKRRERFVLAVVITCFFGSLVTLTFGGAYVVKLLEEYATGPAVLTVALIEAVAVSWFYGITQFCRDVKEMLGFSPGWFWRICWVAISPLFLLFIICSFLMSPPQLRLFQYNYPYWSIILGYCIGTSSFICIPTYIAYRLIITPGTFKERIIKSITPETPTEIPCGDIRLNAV
T2 sequence (P31652 whole entry): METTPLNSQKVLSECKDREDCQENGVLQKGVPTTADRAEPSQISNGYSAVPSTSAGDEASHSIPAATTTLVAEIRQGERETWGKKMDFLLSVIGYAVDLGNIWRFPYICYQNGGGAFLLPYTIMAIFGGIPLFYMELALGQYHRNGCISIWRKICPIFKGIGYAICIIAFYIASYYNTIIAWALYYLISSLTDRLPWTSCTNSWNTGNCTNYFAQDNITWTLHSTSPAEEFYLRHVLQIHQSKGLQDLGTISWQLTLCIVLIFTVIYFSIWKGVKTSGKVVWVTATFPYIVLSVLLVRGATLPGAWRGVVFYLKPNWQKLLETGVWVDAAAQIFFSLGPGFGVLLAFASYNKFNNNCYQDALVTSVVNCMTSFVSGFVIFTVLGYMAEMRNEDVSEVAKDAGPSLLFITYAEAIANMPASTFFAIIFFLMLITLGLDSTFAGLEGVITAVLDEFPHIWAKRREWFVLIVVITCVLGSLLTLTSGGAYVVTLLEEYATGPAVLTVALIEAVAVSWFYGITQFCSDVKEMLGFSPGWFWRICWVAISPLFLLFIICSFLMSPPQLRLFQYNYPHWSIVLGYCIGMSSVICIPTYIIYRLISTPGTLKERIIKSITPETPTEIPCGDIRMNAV
T1 sequence (Q9Y5N1 whole entry): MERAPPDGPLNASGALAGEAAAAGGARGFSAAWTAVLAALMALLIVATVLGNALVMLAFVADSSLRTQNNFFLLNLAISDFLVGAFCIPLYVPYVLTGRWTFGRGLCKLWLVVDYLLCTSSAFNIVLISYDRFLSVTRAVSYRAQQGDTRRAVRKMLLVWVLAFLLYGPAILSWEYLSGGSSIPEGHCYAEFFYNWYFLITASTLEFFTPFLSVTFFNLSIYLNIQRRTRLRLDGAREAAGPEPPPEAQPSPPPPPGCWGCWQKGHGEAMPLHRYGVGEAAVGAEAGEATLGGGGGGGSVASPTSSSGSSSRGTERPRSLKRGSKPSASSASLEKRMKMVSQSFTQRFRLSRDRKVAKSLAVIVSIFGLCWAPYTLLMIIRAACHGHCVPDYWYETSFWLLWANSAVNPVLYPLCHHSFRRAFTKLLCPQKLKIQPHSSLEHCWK

pKi [1]	pKi [2]	pKi [3]	Structure (SMILES)
8.30	8.40	8.30	COc1ccc(C2CN(C)Cc3cc(OCC4CCN(CC(C)C)CC4)ccc32)cc1 (stereo not drawn) [Example 110, 7-(1-Isobutyl-piperidin-4-ylmethoxy)-4-(4-methoxy-phenyl)-2-methyl-1,2,3,4-tetrahydro-isoquinoline]
8.10	8.22	8.15	COc1ccc(C2CN(C)Cc3cc(OCC4CCN(CCF)CC4)ccc32)cc1 (stereo not drawn) [Example 116, 7-[1-(2-Fluoro-ethyl)-piperidin-4-ylmethoxy]-4-(4-methoxy-phenyl)-2-methyl-1,2,3,4-tetrahydro-isoquinoline]
8.52	7.89	7.25	CN1Cc2cc(OCCCN3CCC(F)CC3)ccc2C(c2ccccc2)C1 (stereo not drawn) [Example 124, 7-[3-(4-Fluoro-piperidin-1-yl)-propoxy]-2-methyl-4-phenyl-1,2,3,4-tetrahydro-isoquinoline]
8.10	8.52	7.82	Cc1ccc(C2CN(C)Cc3cc(OCCCN4CCC(F)CC4)ccc32)cc1 (stereo not drawn) [Example 126, 7-[3-(4-Fluoro-piperidin-1-yl)-propoxy]-2-methyl-4-p-tolyl-1,2,3,4-tetrahydro-isoquinoline]
7.85	8.15	8.30	COc1ccc(C2CN(C)Cc3cc(OCCCN4CCC(F)(F)C4)ccc32)cc1 (stereo not drawn) [Example 129, 7-[3-(3,3-Difluoro-pyrrolidin-1-yl)-propoxy]-4-(4-methoxy-phenyl)-2-methyl-1,2,3,4-tetrahydro-isoquinoline]
8.70	7.55	7.52	CN1Cc2cc(OCCCN3CCC(F)CC3)ccc2C(c2ccc(N3CCOCC3)cc2)C1 (stereo not drawn) [Example 134, 7-[3-(4-Fluoro-piperidin-1-yl)-propoxy]-2-methyl-4-(4-morpholin-4-yl-phenyl)-1,2,3,4-tetrahydro-isoquinoline]
8.70	7.57	7.82	C[C@H]1COCCN1CCCOc1ccc2c(c1)CN(C)CC2c1ccc(C#N)cc1 (stereo partly drawn) [Example 135, 4-{2-Methyl-7-[3-(3S-methyl-morpholin-4-yl)-propoxy]-1,2,3,4-tetrahydro-isoquinolin-4-yl}-benzonitrile]
8.40	8.05	7.70	CN1Cc2cc(OCCCN3CCC(F)CC3)ccc2C(c2ccc(C#N)cc2)C1 (stereo not drawn) [Example 136, 4-{7-[3-(4-Fluoro-piperidin-1-yl)-propoxy]-2-methyl-1,2,3,4-tetrahydro-isoquinolin-4-yl}-benzonitrile]
8.30	8.52	8.30	CCOc1ccc(C2CN(C)Cc3cc(OCCCN4CCC(F)CC4)ccc32)cc1 (stereo not drawn) [Example 145, 4-(4-Ethoxy-phenyl)-7-[3-(4-fluoro-piperidin-1-yl)-propoxy]-2-methyl-1,2,3,4-tetrahydro-isoquinoline]
8.30	8.22	7.96	COc1ccc(C2CN(C)Cc3cc(OC4CCN(CCF)CC4)ccc32)cc1 (stereo not drawn) [Example 152, 7-[1-(2-Fluoro-ethyl)-piperidin-4-yloxy]-4-(4-methoxy-phenyl)-2-methyl-1,2,3,4-tetrahydro-isoquinoline]
8.30	8.52	8.40	CSc1ccc(C2CN(C)Cc3cc(OC4CCN(CCF)CC4)ccc32)cc1 (stereo not drawn) [Example 179, 7-[1-(2-Fluoro-ethyl)-piperidin-4-yloxy]-2-methyl-4-(4-methylsulfanyl-phenyl)-1,2,3,4-tetrahydro-isoquinoline]
8.52	8.10	7.47	CN1Cc2cc(OCCCN3CCC(F)CC3)ccc2C(c2ccc(Sc3ncc[nH]3)nc2)C1 (stereo not drawn) [Example 195, 7-[3-(4-Fluoro-piperidin-1-yl)-propoxy]-4-[6-(1H-imidazol-2-ylsulfanyl)-pyridin-3-yl]-2-methyl-1,2,3,4-tetrahydro-isoquinoline]
8.00	8.70	8.70	CCN1CCN(CCCOc2ccc3c(c2)CN(C)CC3c2ccc(OC)cc2)CC1 (stereo not drawn) [Example 198, 7-[3-(4-Ethyl-piperazin-1-yl)-propoxy]-4-(4-methoxy-phenyl)-2-methyl-1,2,3,4-tetrahydro-isoquinoline]
8.10	8.70	8.70	COc1ccc(C2CN(C)Cc3cc(OCCCN4CCN(C(C)C)CC4)ccc32)cc1 (stereo not drawn) [Example 199, 7-[3-(4-Isopropyl-piperazin-1-yl)-propoxy]-4-(4-methoxy-phenyl)-2-methyl-1,2,3,4-tetrahydro-isoquinoline]
8.30	9.00	8.30	CSc1ccc(C2CN(C)Cc3cc(OCCCN4CCOC[C@@H]4C)ccc32)cc1 (stereo partly drawn) [Example 215, 2-Methyl-7-[3-(3S-methyl-morpholin-4-yl)-propoxy]-4-(4-methylsulfanyl-phenyl)-1,2,3,4-tetrahydro-isoquinoline]
7.66	8.40	8.10	CSc1ccc(C2CN(C)Cc3cc(OCCCN4CCC(F)(F)CC4)ccc32)cc1 (stereo not drawn) [Example 216, 7-[3-(4,4-Difluoro-piperidin-1-yl)-propoxy]-2-methyl-4-(4-methylsulfanyl-phenyl)-1,2,3,4-tetrahydro-isoquinoline]
7.52	7.52	7.74	CN1Cc2cc(OCCCN3CCCCC3)ccc2C(c2ccc(OC(F)(F)F)cc2)C1 (stereo not drawn) [Example 222, 2-Methyl-7-(3-piperidin-1-yl-propoxy)-4-(4-trifluoromethoxy-phenyl)-1,2,3,4-tetrahydro-isoquinoline]

The remaining lines, values behind:

Structure (SMILES)	pKi [1]	pKi [2]	pKi [3]
CCCN1CCC(COc2ccc3c(c2)CN(C)CC3c2ccc(OC)c(F)c2)CC1 (stereo not drawn) [Example 112, 4-(3-Fluoro-4-methoxy-phenyl)-2-methyl-7-(1-propyl-piperidin-4-ylmethoxy)-1,2,3,4-tetrahydro-isoquinoline]	8.05	8.30	8.22
COc1ccc(C2CN(C)Cc3cc(OC4CCN(C(C)C)CC4)ccc32)cc1 (stereo not drawn) [Example 117, 7-(1-Isopropyl-piperidin-4-yloxy)-4-(4-methoxy-phenyl)-2-methyl-1,2,3,4-tetrahydro-isoquinoline]	9.00	8.05	8.00
CSc1ccc(C2CN(C)Cc3cc(OC4CCN(C(C)C)CC4)ccc32)cc1 (stereo not drawn) [Example 118, 7-(1-Isopropyl-piperidin-4-yloxy)-2-methyl-4-(4-methylsulfanyl-phenyl)-1,2,3,4-tetrahydro-isoquinoline]	9.00	8.10	8.40
COc1ccc(C2CN(C)Cc3cc(OC4CCN(C5CCOCC5)CC4)ccc32)cc1 (stereo not drawn) [Example 121, 4-(4-Methoxy-phenyl)-2-methyl-7-[1-(tetrahydro-pyran-4-yl)-piperidin-4-yloxy]-1,2,3,4-tetrahydro-isoquinoline]	8.70	8.00	8.22
COc1ccc(C2CN(C)Cc3cc(OC4CCNCC4)ccc32)cc1 (stereo not drawn) [Example 148, 4-(4-Methoxy-phenyl)-2-methyl-7-(piperidin-4-yloxy)-1,2,3,4-tetrahydro-isoquinoline]	6.58	8.52	8.30
COc1ccc(C2CN(C)Cc3cc(OCCCN4CCN(c5ccncc5)CC4)ccc32)cc1 (stereo not drawn) [Example 204, 4-(4-Methoxy-phenyl)-2-methyl-7-[3-(4-pyridin-4-yl-piperazin-1-yl)-propoxy]-1,2,3,4-tetrahydro-isoquinoline]	8.70	8.00	8.30
COc1ccc(C2CN(C)Cc3cc(OCCCN4CCOC[C@@H]4C)ccc32)c(F)c1 (stereo partly drawn) [Example 220, 4-(2-Fluoro-4-methoxy-phenyl)-2-methyl-7-[3-(3S-methyl-morpholin-4-yl)-propoxy]-1,2,3,4-tetrahydro-isoquinoline]	8.22	8.40	7.92
CSc1ccc(C2CN(C)Cc3cc(OC4CCN(C)CC4)ccc32)cc1 (stereo not drawn) [Example 243, 2-Methyl-7-(1-methyl-piperidin-4-yloxy)-4-(4-methylsulfanyl-phenyl)-1,2,3,4-tetrahydro-isoquinoline]	7.66	8.30	8.22
CSc1ccc(C2CN(C)Cc3cc(OC4CCN(C5CC5)CC4)ccc32)cc1 (stereo not drawn) [Example 247, 7-(1-Cyclopropyl-piperidin-4-yloxy)-2-methyl-4-(4-methylsulfanyl-phenyl)-1,2,3,4-tetrahydro-isoquinoline]	8.70	8.30	8.15
COc1ccc(C2CN(C)Cc3cc(OCC4CN(C(C)C)CCO4)ccc32)cc1 (stereo not drawn) [Example 254, 7-(4-Isopropyl-morpholin-2-ylmethoxy)-4-(4-methoxy-phenyl)-2-methyl-1,2,3,4-tetrahydro-isoquinoline]	8.05	8.05	8.15
COc1ccc(C2CN(C)Cc3cc(C#CCCN4CCC(F)(F)CC4)ccc32)cc1 (stereo not drawn) [Example 274, 7-[4-(4,4-Difluoro-piperidin-1-yl)-but-1-ynyl]-4-(4-methoxy-phenyl)-2-methyl-1,2,3,4-tetrahydro-isoquinoline]	7.19	7.85	7.57
COc1ccc(C2CN(C)Cc3cc(C#CCCN4CCOCC4)ccc32)cc1 (stereo not drawn) [Example 276, 4-(4-Methoxy-phenyl)-2-methyl-7-(4-morpholin-4-yl-but-1-ynyl)-1,2,3,4-tetrahydro-isoquinoline]	7.07	7.74	8.05
